Source: patent publication US20070203066A1, “Compositions and methods for inhibiting cellular proliferation” (priority 2005, published 2007)
Like-named read-outs stand apart in the source and are kept apart here. Starred links: 1 amine or outer side, 2 acyl side, 3 side chain; linkers in the order of their positions; H or OH if unused. Positions of bridges follow the written chain, without caps; N, C: chain ends. Residues, ends and D or L forms follow the SMILES beside them. Chains are numbered I, II in the order given. X1 = CC(C)(C)OC(=O)NCCC(=O)N(CCC(=O)[*:1])CCN(CCC(=O)[*:2])C(=O)CCNC(=O)OC(C)(C)C

Tested on: HUVECs
Type: cell-based
Outline: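 HUVECs seeded at 5,000 cells/well in EBM with 2% FCS, adhered ≥12 hours, then stimulated with bFGF 10 ng/ml or VEGF 5 ng/ml plus varying peptide concentrations. After 48 hours at 37 ° C, 5% CO2, proliferation inhibition read by BrdU incorporation.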

[1] = HUVEC proliferation, bFGF at 10 ng/ml or VEGF at 5 ng/ml, 48 hours, BrdU incorporation, read-out: IC50 on HUVECs

Row | Compound | IC50 (48 h) [µM] | IC50 [1] [µM]
1 | CC[C@H](C)[C@H](NC(=O)[C@H](Cc1c[nH]cn1)NC(=O)[C@@H](NC(=O)[C@H](Cc1c[nH]cn1)NC(=O)[C@H](CCC(N)=O)NC(=O)[C@H](CCCNC(=N)N)NC(=O)[C@H](CCCNC(=N)N)NC(=O)[C@H](CCCNC(=N)N)NC(=O)[C@H](CCCNC(=N)N)NC(=O)[C@H](Cc1c[nH]cn1)NC(C)=O)C(C)C)C(=O)N[C@@H](Cc1ccc(O)cc1)C(=O)N[C@@H](Cc1ccccc1)C(=O)N[C@@H](CCCCNC(=O)CN(CC(=O)NCCCC[C@H](NC(=O)[C@H](Cc1ccccc1)NC(=O)[C@H](Cc1ccc(O)cc1)NC(=O)[C@@H](NC(=O)[C@H](Cc1c[nH]cn1)NC(=O)[C@@H](NC(=O)[C@H](Cc1c[nH]cn1)NC(=O)[C@H](CCC(N)=O)NC(=O)[C@H](CCCNC(=N)N)NC(=O)[C@H](CCCNC(=N)N)NC(=O)[C@H](CCCNC(=N)N)NC(=O)[C@H](CCCNC(=N)N)NC(=O)[C@H](Cc1c[nH]cn1)NC(C)=O)C(C)C)[C@@H](C)CC)C(N)=O)C(=O)CCNC(=O)OC(C)(C)C)C(N)=O [Peptide 322] | < 10 | 
2 | CC[C@H](C)[C@H](NC(=O)[C@H](C)NC(=O)[C@@H](NC(=O)[C@H](CCCNC(=N)N)NC(=O)[C@H](CCC(N)=O)NC(=O)[C@H](CCCNC(=N)N)NC(=O)[C@H](CCCNC(=N)N)NC(=O)[C@H](CCCNC(=N)N)NC(=O)[C@H](CCCNC(=N)N)NC(=O)[C@H](C)NC(C)=O)C(C)C)C(=O)N[C@@H](Cc1ccc(O)cc1)C(=O)N[C@@H](Cc1ccccc1)C(=O)N[C@@H](CCCCNC(=O)CCN(CCN(CCC(=O)NCCCC[C@H](NC(=O)[C@H](Cc1ccccc1)NC(=O)[C@H](Cc1ccc(O)cc1)NC(=O)[C@@H](NC(=O)[C@H](C)NC(=O)[C@@H](NC(=O)[C@H](CCCNC(=N)N)NC(=O)[C@H](CCC(N)=O)NC(=O)[C@H](CCCNC(=N)N)NC(=O)[C@H](CCCNC(=N)N)NC(=O)[C@H](CCCNC(=N)N)NC(=O)[C@H](CCCNC(=N)N)NC(=O)[C@H](C)NC(C)=O)C(C)C)[C@@H](C)CC)C(N)=O)C(=O)CCNC(=O)OC(C)(C)C)C(=O)CCNC(=O)OC(C)(C)C)C(N)=O [Peptide 331] (I: Ac-ARRRRQRVAIYFK-NH2 / II: Ac-ARRRRQRVAIYFK-NH2; linker I:13-II:13 via X1; C-terminus assumed) | < 10 | 
3 | CC[C@H](C)[C@H](NC(=O)[C@H](CCCNC(=N)N)NC(=O)[C@@H](NC(=O)[C@H](Cc1c[nH]cn1)NC(=O)[C@H](CCC(N)=O)NC(=O)[C@H](CCCNC(=N)N)NC(=O)[C@H](CCCNC(=N)N)NC(=O)[C@H](Cc1c[nH]cn1)NC(=O)[C@H](Cc1c[nH]cn1)NC(=O)[C@H](CCCNC(=N)N)NC(C)=O)C(C)C)C(=O)N[C@@H](Cc1ccc(O)cc1)C(=O)N[C@@H](Cc1ccccc1)C(=O)N[C@@H](CCCCNC(=O)CN(CC(=O)NCCCC[C@H](NC(=O)[C@H](Cc1ccccc1)NC(=O)[C@H](Cc1ccc(O)cc1)NC(=O)[C@@H](NC(=O)[C@H](CCCNC(=N)N)NC(=O)[C@@H](NC(=O)[C@H](Cc1c[nH]cn1)NC(=O)[C@H](CCC(N)=O)NC(=O)[C@H](CCCNC(=N)N)NC(=O)[C@H](CCCNC(=N)N)NC(=O)[C@H](Cc1c[nH]cn1)NC(=O)[C@H](Cc1c[nH]cn1)NC(=O)[C@H](CCCNC(=N)N)NC(C)=O)C(C)C)[C@@H](C)CC)C(N)=O)C(=O)CCNC(=O)OC(C)(C)C)C(N)=O [Peptide 333] | < 10 | 
4 | CC[C@H](C)[C@H](NC(=O)[C@H](C)NC(=O)[C@@H](NC(=O)[C@H](CCCNC(=N)N)NC(=O)[C@H](CCC(N)=O)NC(=O)[C@H](CCCNC(=N)N)NC(=O)[C@H](CCCNC(=N)N)NC(=O)[C@H](CCCNC(=N)N)NC(=O)[C@H](CCCNC(=N)N)NC(=O)[C@H](C)NC(C)=O)C(C)C)C(=O)N[C@@H](Cc1ccc(O)cc1)C(=O)N[C@@H](CCC(=O)O)C(=O)N[C@@H](CCCCNC(=O)CN(CC(=O)NCCCC[C@H](NC(=O)[C@H](CCC(=O)O)NC(=O)[C@H](Cc1ccc(O)cc1)NC(=O)[C@@H](NC(=O)[C@H](C)NC(=O)[C@@H](NC(=O)[C@H](CCCNC(=N)N)NC(=O)[C@H](CCC(N)=O)NC(=O)[C@H](CCCNC(=N)N)NC(=O)[C@H](CCCNC(=N)N)NC(=O)[C@H](CCCNC(=N)N)NC(=O)[C@H](CCCNC(=N)N)NC(=O)[C@H](C)NC(C)=O)C(C)C)[C@@H](C)CC)C(N)=O)C(=O)CCNC(=O)OC(C)(C)C)C(N)=O [Peptide 346] | > 30 | 
5 | CC[C@H](C)[C@H](NC(=O)[C@H](C)NC(=O)[C@@H](NC(=O)[C@H](CCSC)NC(=O)[C@H](CCC(N)=O)NC(=O)[C@H](CCCNC(=N)N)NC(=O)[C@H](CCCNC(=N)N)NC(=O)[C@H](CCCNC(=N)N)NC(=O)[C@H](CCCNC(=N)N)NC(=O)[C@H](C)NC(C)=O)C(C)C)C(=O)N[C@@H](Cc1ccc(O)cc1)C(=O)N[C@@H](Cc1ccccc1)C(=O)N[C@@H](CCCCNC(=O)CN(CC(=O)NCCCC[C@H](NC(=O)[C@H](Cc1ccccc1)NC(=O)[C@H](Cc1ccc(O)cc1)NC(=O)[C@@H](NC(=O)[C@H](C)NC(=O)[C@@H](NC(=O)[C@H](CCSC)NC(=O)[C@H](CCC(N)=O)NC(=O)[C@H](CCCNC(=N)N)NC(=O)[C@H](CCCNC(=N)N)NC(=O)[C@H](CCCNC(=N)N)NC(=O)[C@H](CCCNC(=N)N)NC(=O)[C@H](C)NC(C)=O)C(C)C)[C@@H](C)CC)C(N)=O)C(=O)CCNC(=O)OC(C)(C)C)C(N)=O [Peptide 385] | < 10 | 
6 | AAKRKRKKQRVKIAYEEIFVQNM [compound 72] |  | 10 to 30
7 | ATKRKRKKQRVKIIFVQNM [compound 123] |  | < 10
8 | KAARKRKKQRVKIAYEEIFVQNM [compound 56] |  | 10 to 30
9 | KAKRKRKKQRVKIIFVQNM [compound 122] |  | < 10
10 | KKKKKMPKLRFASRIRKIRKKQF [compound 71] |  | 10 to 30
11 | KKQRVKIAYEEIF [compound 70] |  | > 30
12 | KKQRVKIAYEEIFVKNM [compound 12] |  | < 10
13 | KKQRVKIAYEEIFVQNM [compound 24] |  | > 30
14 | KKSSKRAKTQRRRKSFVKMYENIH [compound 8] |  | > 30
15 | KNKSKGVVKIQRRKAPFVVYESIN [compound 7] |  | > 30
16 | KRKKQQRVKIAYEEIFV [compound 77] |  | > 30
17 | KRKKQRVKIAYEEIF [compound 68] |  | > 30
18 | KRKKQRVKIAYEEIFV [compound 63] |  | < 10
19 | KRKKQRVKIAYEEIFVKNM [compound 10] |  | 10 to 30

Row | Compound | IC50 (48 h) [µM] | IC50 [1] [µM]
20 | KRKKQRVKIAYEEIFVQNM [compound 22] |  | > 30
21 | KRKKQRVKIIF [compound 83] |  | > 30
22 | KRKKQRVKIIFV [compound 88] |  | > 30
23 | KRKRKKQQRVKIAYEEIFV [compound 75] |  | 10 to 30
24 | KRKRKKQRVKIAYEEIF [compound 66] |  | 10 to 30
25 | KRKRKKQRVKIAYEEIFV [compound 61] |  | 10 to 30
26 | KRKRKKQRVKIAYEEIFVKNM [compound 3] |  | 10 to 30
27 | KRKRKKQRVKIAYEEIFVQNM [compound 20] |  | > 30
28 | KRKRKKQRVKIIF [compound 81] |  | 10 to 30
29 | KRKRKKQRVKIIFV [compound 87] |  | < 10
30 | KTARKRKKQRVKIIFVQNM [compound 121] |  | < 10
31 | KTKAARKKQRVKIAYEEIFVQNM [compound 55] |  | > 30
32 | KTKAKRKKQRVKIIFVQNM [compound 120] |  | < 10
33 | KTKKQRVKIAYEEIFVQNM [compound 57] |  | > 30
34 | KTKRARKKQRVKIIFVQNM [compound 119] |  | < 10
35 | KTKRKAAKQRVKIAYEEIFVQNM [compound 54] |  | > 30
36 | KTKRKAKKQRVKIIFVQNM [compound 118] |  | < 10
37 | KTKRKRAKQRVKIIFVQNM [compound 117] |  | < 10
